Counter-ions that a name gives are not always drawn.

T1 sequence (P10721 26-976 V560G/V654A): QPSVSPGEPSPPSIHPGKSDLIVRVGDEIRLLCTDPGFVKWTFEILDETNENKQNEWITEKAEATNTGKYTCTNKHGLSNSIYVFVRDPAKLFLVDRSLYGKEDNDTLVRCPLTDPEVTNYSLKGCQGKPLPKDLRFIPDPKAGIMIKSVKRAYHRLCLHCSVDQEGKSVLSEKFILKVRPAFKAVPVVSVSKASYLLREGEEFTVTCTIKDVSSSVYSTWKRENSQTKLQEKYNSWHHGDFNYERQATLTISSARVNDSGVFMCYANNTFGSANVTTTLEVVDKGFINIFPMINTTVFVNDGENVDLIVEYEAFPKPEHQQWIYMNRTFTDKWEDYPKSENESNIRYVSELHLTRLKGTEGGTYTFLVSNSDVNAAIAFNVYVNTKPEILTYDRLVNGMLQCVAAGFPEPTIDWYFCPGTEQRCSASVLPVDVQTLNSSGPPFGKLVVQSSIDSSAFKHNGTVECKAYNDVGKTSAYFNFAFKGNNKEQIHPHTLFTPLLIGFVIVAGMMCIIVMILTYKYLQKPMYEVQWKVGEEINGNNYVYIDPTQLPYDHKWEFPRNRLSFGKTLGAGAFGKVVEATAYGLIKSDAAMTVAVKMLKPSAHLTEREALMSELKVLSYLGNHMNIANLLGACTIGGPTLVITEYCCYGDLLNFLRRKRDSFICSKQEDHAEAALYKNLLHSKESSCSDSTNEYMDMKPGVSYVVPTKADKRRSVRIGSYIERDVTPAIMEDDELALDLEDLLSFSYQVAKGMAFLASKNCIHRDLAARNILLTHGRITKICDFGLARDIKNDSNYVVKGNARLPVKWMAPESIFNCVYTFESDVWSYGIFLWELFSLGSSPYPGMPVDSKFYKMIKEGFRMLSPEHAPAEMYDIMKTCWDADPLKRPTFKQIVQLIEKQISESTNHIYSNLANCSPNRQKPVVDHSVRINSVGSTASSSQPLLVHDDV

This experiment concerns the target T1, c-kit autophosphorylation (Phospho c-Kit Tyr721) in HMC 1.1 (exon 11/13) cells, V654A (Homo sapiens, UniProt P10721, V560G/V654A).
T1 construct: endogenous in cells; host or cells: HMC 1.1 (exon 11/13) cells
The experiment in a line: pKIT Meso Scale Discovery (MSD) assay, inhibition of autophosphorylation of KIT, HMC1.1_V654A. Format: cell-based. The following applies: Table 1, cell line not named for Table 1, b1056 names pKIT HMC1.1_V654A, read-out: Code (IC50 for inhibition of autophosphorylation of KIT, pKIT MSD assay). An outline of the steps:
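HMC1.1 cells were serum-starved for 4 h in serum-free, iron-free, phenol red-free IMDM, then treated with compound in dose-response for 90 min at 37 °C. Staurosporine and DMSO served as controls. Lysates were analysed by MSD electrochemiluminescence immunoassay for phospho-c-Kit Tyr721, and % inhibition of autophosphorylation was derived.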
As for `CCNc1cc(Nc2cc(N)nc(C(F)F)n2)ncc1C(=O)NC1CC1` [Compound 39, 6-((6-amino-2-(difluoromethyl)pyrimidin-4-yl)amino)-N-cyclopropyl-4-(ethylamino)nicotinamide], the IC50 was less than 10 nM.

With `Nc1cc(Nc2cc(NC3CC3)c(C(=O)NCc3ccccn3)cn2)nc(C(F)F)n1` [Compound 153, 6-((6-amino-2-(difluoromethyl)pyrimidin-4-yl)amino)-4-(cyclopropylamino)-N-(pyridin-2-ylmethyl)nicotinamide], the IC50 was less than 10 nM.

For `[2H]C([2H])([2H])NC(=O)c1cnc(Nc2cc(N)nc(C(F)F)n2)cc1NC1CC1` [Compound 31, 6-((6-amino-2-(difluoromethyl)pyrimidin-4-yl)amino)-4-(cyclopropylamino)-N-(methyl-d3)nicotinamide], the IC50 was less than 10 nM.

For `CC(O)Cn1cc(-c2cnc(Nc3cc(N)nc(C(F)F)n3)cc2OC(F)F)cn1` (centres unmarked) [Compound 155, 1-(4-(6-((6-amino-2-(difluoromethyl)pyrimidin-4-yl)amino)-4-(difluoromethoxy)pyridin-3-yl)-1H-pyrazol-1-yl)propan-2-ol], the IC50 was less than 10 nM.

In the case of `CN[C@@H](C)Cn1cc(-c2cnc(Nc3cc(N)nc(C(F)F)n3)cc2OC)cn1` (single isomer, unassigned) [Compound 117, (S)-2-(difluoromethyl)-N4-(4-methoxy-5-(1-(2-(methylamino)propyl)-1H-pyrazol-4-yl)pyridin-2-yl)pyrimidine-4,6-diamine or (R)-2-(difluoromethyl)-N4-(4-methoxy-5-(1-(2-(methylamino)propyl)-1H-pyrazol-4-yl)pyridin-2-yl)pyrimidine-4,6-diamine], the half-maximal inhibitory concentration (IC50) was less than 10 nM.

As for `CNC(=O)c1cnc(Nc2cc(N)nc([C@H](C)F)n2)cc1NC` [Compound 3, (S)-6-((6-amino-2-(1-fluoroethyl)pyrimidin-4-yl)amino)-N-methyl-4-(methylamino)nicotinamide], the half-inhibitory concentration (IC50) is 10 to 40 nM.

Turning to `COc1cc(Nc2cc(N)nc(C(F)F)n2)ncc1-c1cnn(C(F)(F)F)c1` [Compound 94, 2-(difluoromethyl)-N4-(4-methoxy-5-(1-(trifluoromethyl)-1H-pyrazol-4-yl)pyridin-2-yl)pyrimidine-4,6-diamine], the IC50 was in the range of 10 to 40 nM.

With `CC(C)(O)CCn1cc(-c2cnc(Nc3cc(N)nc(C(F)F)n3)cc2OC2CC2)cn1` [Compound 185, 4-(4-(6-((6-amino-2-(difluoromethyl)pyrimidin-4-yl)amino)-4-cyclopropoxypyridin-3-yl)-1H-pyrazol-1-yl)-2-methylbutan-2-ol], the IC50 was less than 10 nM.

In the case of `COc1cc(Nc2cc(N)nc(C(F)F)n2)ncc1-c1cnn(C[C@@H]2CCN2C)c1` (single isomer, unassigned) [Compound 139, (S)-2-(difluoromethyl)-N4-(4-methoxy-5-(1-((1-methylazetidin-2-yl)methyl)-1H-pyrazol-4-yl)pyridin-2-yl)pyrimidine-4,6-diamine or (R)-2-(difluoromethyl)-N4-(4-methoxy-5-(1-((1-methylazetidin-2-yl)methyl)-1H-pyrazol-4-yl)pyridin-2-yl)pyrimidine-4,6-diamine], the IC50 is less than 10 nM.

As to `Nc1cc(Nc2cc(OC3CC3)c(-c3cnn(CC4CCO4)c3)cn2)nc(C(F)F)n1` (centres unmarked) [Compound 166, N4-(4-cyclopropoxy-5-(1-(oxetan-2-ylmethyl)-1H-pyrazol-4-yl)pyridin-2-yl)-2-(difluoromethyl)pyrimidine-4,6-diamine], the half-inhibitory concentration (IC50) is less than 10 nM.

As to `COc1cc(Nc2cc(N)nc(C(F)F)n2)ncc1-c1cnn(CC(C)O)c1` (centres unmarked) [Compound 85, 1-(4-(6-((6-amino-2-(difluoromethyl)pyrimidin-4-yl)amino)-4-methoxypyridin-3-yl)-1H-pyrazol-1-yl)propan-2-ol], the IC50 fell in the range of 10 to 40 nM.

Take `Cn1cc(-c2cnc(Nc3cc(N)nc(C(F)F)n3)cc2OC2CCCOC2)cn1` (centres unmarked) [Compound 142, 2-(difluoromethyl)-N4-(5-(1-methyl-1H-pyrazol-4-yl)-4-((tetrahydro-2H-pyran-3-yl)oxy)pyridin-2-yl)pyrimidine-4,6-diamine]: the IC50 is less than 10 nM.

As to `CNC(C)(C)Cn1cc(-c2cnc(Nc3cc(N)nc(C(F)F)n3)cc2OC(F)F)cn1` [Compound 193, N4-(4-(difluoromethoxy)-5-(1-(2-methyl-2-(methylamino)propyl)-1H-pyrazol-4-yl)pyridin-2-yl)-2-(difluoromethyl)pyrimidine-4,6-diamine], the half-maximal inhibitory concentration (IC50) is less than 10 nM.

Turning to `CC(C)Oc1cc(Nc2cc(N)nc(CF)n2)ncc1-c1cnn(C)c1` [Compound 33, 2-(fluoromethyl)-N4-(4-isopropoxy-5-(1-methyl-1H-pyrazol-4-yl)pyridin-2-yl)pyrimidine-4,6-diamine], the concentration for half-maximal inhibition (IC50) was less than 10 nM.

For `C[C@H](CF)Nc1cc(Nc2cc(N)nc(C(F)F)n2)ncc1C(=O)NCc1ccccn1` [Compound 187, (R)-6-((6-amino-2-(difluoromethyl)pyrimidin-4-yl)amino)-4-((1-fluoropropan-2-yl)amino)-N-(pyridin-2-ylmethyl)nicotinamide], the IC50 was in the range of 10 to 40 nM.

Consider `Cn1cc(-c2cnc(Nc3cc(N)nc(C(F)F)n3)cc2OC(F)(F)F)cn1` [Compound 95, 2-(difluoromethyl)-N4-(5-(1-methyl-1H-pyrazol-4-yl)-4-(trifluoromethoxy)pyridin-2-yl)pyrimidine-4,6-diamine], for which the half-inhibitory concentration (IC50) is less than 10 nM.

On to `CNCCn1cc(-c2cnc(Nc3cc(N)nc(C(F)F)n3)cc2OC2COC2)cn1` [Compound 175, 2-(difluoromethyl)-N4-(5-(1-(2-(methylamino)ethyl)-1H-pyrazol-4-yl)-4-(oxetan-3-yloxy)pyridin-2-yl)pyrimidine-4,6-diamine], for which the IC50 was more than 40 nM.

As for `Nc1cc(Nc2cc(OC3CC3)c(-c3cnn([C@@H]4CCOC4)c3)cn2)nc(C(F)F)n1` (single isomer, unassigned) [Compound 165, (R)—N4-(4-cyclopropoxy-5-(1-(tetrahydrofuran-3-yl)-1H-pyrazol-4-yl)pyridin-2-yl)-2-(difluoromethyl)pyrimidine-4,6-diamine or (S)—N4-(4-cyclopropoxy-5-(1-(tetrahydrofuran-3-yl)-1H-pyrazol-4-yl)pyridin-2-yl)-2-(difluoromethyl)pyrimidine-4,6-diamine], the IC50 was less than 10 nM.

For the molecule `CNC(=O)c1cnc(Nc2cc(N)nc(C(F)F)n2)cc1NCC(F)(F)F` [Compound 82, 6-((6-amino-2-(difluoromethyl)pyrimidin-4-yl)amino)-N-methyl-4-((2,2,2-trifluoroethyl)amino)nicotinamide], the concentration for half-maximal inhibition (IC50) was less than 10 nM.

Take `CN1CC(n2cc(-c3cnc(Nc4cc(N)nc(C(F)F)n4)cc3OC[C@@H]3CCCO3)cn2)C1` [Compound 201, (S)-2-(difluoromethyl)-N4-(5-(1-(1-methylazetidin-3-yl)-1H-pyrazol-4-yl)-4-((tetrahydrofuran-2-yl)methoxy)pyridin-2-yl)pyrimidine-4,6-diamine]: the IC50 was in the range of 10 to 40 nM.

Turning to `Nc1cc(Nc2cc(OC3CC3)c(-c3cnn([C@H]4CCOC4)c3)cn2)nc(C(F)F)n1` (single isomer, unassigned) [Compound 164, (S)—N4-(4-cyclopropoxy-5-(1-(tetrahydrofuran-3-yl)-1H-pyrazol-4-yl)pyridin-2-yl)-2-(difluoromethyl)pyrimidine-4,6-diamine or (R)—N4-(4-cyclopropoxy-5-(1-(tetrahydrofuran-3-yl)-1H-pyrazol-4-yl)pyridin-2-yl)-2-(difluoromethyl)pyrimidine-4,6-diamine], the 50% inhibitory concentration (IC50) is less than 10 nM.

Regarding `CC(C)Nc1cc(Nc2cc(N)nc(C(F)F)n2)ncc1C(=O)NCc1ncco1` [Compound 148, 6-((6-amino-2-(difluoromethyl)pyrimidin-4-yl)amino)-4-(isopropylamino)-N-(oxazol-2-ylmethyl)nicotinamide], the IC50 is less than 10 nM.

Take `Cn1cc(-c2cnc(Nc3cc(N)nc(CF)n3)cc2OC2CC2)cn1` [Compound 32, N4-(4-cyclopropoxy-5-(1-methyl-1H-pyrazol-4-yl)pyridin-2-yl)-2-(fluoromethyl)pyrimidine-4,6-diamine]: the 50% inhibitory concentration (IC50) was less than 10 nM.

In the case of `CCNC(=O)c1cnc(Nc2cc(N)nc(C(F)F)n2)cc1N[C@H](C)CF` [Compound 72, (R)-6-((6-amino-2-(difluoromethyl)pyrimidin-4-yl)amino)-N-ethyl-4-((1-fluoropropan-2-yl)amino)nicotinamide], the IC50 was less than 10 nM.

Take `COc1cc(Nc2cc(N)nc(C(F)F)n2)ncc1-c1cnn(C2CCNC2)c1` (centres unmarked) [Compound 97, 2-(difluoromethyl)-N4-(4-methoxy-5-(1-(pyrrolidin-3-yl)-1H-pyrazol-4-yl)pyridin-2-yl)pyrimidine-4,6-diamine]: the 50% inhibitory concentration (IC50) lay in the range of 10 to 40 nM.

For `Nc1cc(Nc2cc(OC3COC3)c(-c3cnn(C4CNC4)c3)cn2)nc(C(F)F)n1` [Compound 168, N4-(5-(1-(azetidin-3-yl)-1H-pyrazol-4-yl)-4-(oxetan-3-yloxy)pyridin-2-yl)-2-(difluoromethyl)pyrimidine-4,6-diamine formate], the IC50 is more than 40 nM.

Consider `CC(C)Nc1cc(Nc2cc(N)nc(C(F)F)n2)ncc1C(=O)NCc1cocn1` [Compound 147, 6-((6-amino-2-(difluoromethyl)pyrimidin-4-yl)amino)-4-(isopropylamino)-N-(oxazol-4-ylmethyl)nicotinamide], for which the half-inhibitory concentration (IC50) is less than 10 nM.

`CNC(=O)c1cnc(Nc2cc(N)nc([C@H](C)F)n2)cc1NC1CC1` [Compound 15, (S)-6-((6-amino-2-(1-fluoroethyl)pyrimidin-4-yl)amino)-4-(cyclopropylamino)-N-methylnicotinamide]: the IC50 lay within 10 to 40 nM.

For the molecule `Cn1cc(-c2cnc(Nc3cc(N)nc(C(F)F)n3)cc2OC2CCOC2)cn1` (centres unmarked) [Compound 106, 2-(difluoromethyl)-N4-(5-(1-methyl-1H-pyrazol-4-yl)-4-((tetrahydrofuran-3-yl)oxy)pyridin-2-yl)pyrimidine-4,6-diamine], the IC50 is less than 10 nM.
